Measured values published in paper PMC9404985, “Development of Dicationic Bisguanidine-Arylfuran Derivatives as Potent Agents against Gram-Negative Bacteria” (Antibiotics, 2022).
Read-outs that look alike come from different tables or passages of the source.

Columns and labels:
[1] = test system: K. pneumoniae (CCUG #58547); experiment: Antibacterial activity against isolates (Omnilog, Biolog redox dye); type: cell-based, Klebsiella pneumoniae; conditions: for EC50 / EC90: Klebsiella pneumoniae, CCUG58547, ca-MH broth, 24 h, 37 °C; for Selectivity index K. pneumoniae (CCUG #58547): SI = ((EC50 MCF-7 + EC50 HepG2)/2)/EC50 bacterial strain
Method: The antibacterial activities of eight compounds (1, 3, 4, 6, 8, 10, 16, and 17) were tested against 10 different isolates of Gram-negative bacteria from human and other sources, two E. coli (CCUG #67180 and CCUG #17620/ATCC #25922, control strain), two K. pneumoniae (CCUG #58547 and CCUG #225T), two P. aeruginosa (CCUG #17619 and CCUG #59347), two A. baumannii (CCUG #57035 and CCUG #57250), E. cloacae (CCUG #6323T), and E. hormaechei (CCUG #58962) in a 96-well plate format. […] Bacterial mass from the ten isolates grown overnight on horse blood or Mueller–Hinton agar plates was suspended in ca-MH and adjusted to a final inoculum cell density of ~5 × 10^5 CFU/mL. For all assays, Biolog redox dye A diluted 100× from the stock solution was used for measurements of all ten isolates (up to a total volume of 120 µL per well). All plates included one well per isolate with only inoculum and dye but no test compound (i.e., positive control) and one well per isolate with inoculum, dye and DMSO diluted 1667×, corresponding to the DMSO concentration in the wells with the highest concentration of test compound. All measurements were performed using the Omnilog microplate reader (Biolog, Hayward, CA, USA) where the 96-well plates were read at 15 min intervals for a total of 24 h at 37 °C.

[2] = test system: P. aeruginosa (CCUG #17619); experiment: as above; type: cell-based, Pseudomonas aeruginosa; conditions: for EC50 / EC90: Pseudomonas aeruginosa, CCUG17619, ca-MH broth, 24 h, 37 °C; for Selectivity index P. aeruginosa (CCUG #17619): SI = ((EC50 MCF-7 + EC50 HepG2)/2)/EC50 bacterial strain
Method: (§1) The antibacterial activities of eight compounds (1, 3, 4, 6, 8, 10, 16, and 17) were tested against 10 different isolates of Gram-negative bacteria from human and other sources, two E. coli (CCUG #67180 and CCUG #17620/ATCC #25922, control strain), two K. pneumoniae (CCUG #58547 and CCUG #225T), two P. aeruginosa (CCUG #17619 and CCUG #59347), two A. baumannii (CCUG #57035 and CCUG #57250), E. cloacae (CCUG #6323T), and E. hormaechei (CCUG #58962) in a 96-well plate format. The compounds to test were 3-fold diluted in six steps in cation-adjusted Mueller-Hinton (ca-MH) broth to final concentrations spanning from 30 to 0.12 µM, i.e., a 1667–416,667 times dilution from the 50 mM stocks. Bacterial mass from the ten isolates grown overnight on horse blood or Mueller–Hinton agar plates was suspended in ca-MH and adjusted to a final inoculum cell density of ~5 × 10^5 CFU/mL. For all assays, Biolog redox dye A diluted 100× from the stock solution was used for measurements of all ten isolates (up to a total volume of 120 µL per well). All plates included one well per isolate with only inoculum and dye but no test compound (i.e., positive control) and one well per isolate with inoculum, dye and DMSO diluted 1667×, corresponding to the DMSO concentration in the wells with the highest concentration of test compound. All measurements were performed using the Omnilog microplate reader (Biolog, Hayward, CA, USA) where the 96-well plates were read at 15 min intervals for a total of 24 h at 37 °C.

[3] = test system: B. subtilis (NBRC/ATCC #111470); experiment: Antibacterial resazurin assay, laboratory strain; conditions: for EC50 / EC90: Bacillus subtilis, ATCC111470, 18 h; for EC50: read-out: Bsu EC50; for EC90: read-out: Bsu EC90; for Selectivity index B. subtilis: mean of MCF-7 and HepG2 EC50 over bacterial EC50, laboratory strain
[4] = test system: P. putida (NBRC/ATCC #100650); experiment: Antibacterial resazurin assay, laboratory strain; conditions: for EC90: read-out: Ppu EC90; for Selectivity index P. putida: mean of MCF-7 and HepG2 EC50 over bacterial EC50, laboratory strain
E. coli (CCUG #67180) = experiment: Antibacterial activity against isolates (Omnilog, Biolog redox dye); type: cell-based, Escherichia coli; conditions: for EC90 / EC50: Escherichia coli, ca-MH broth, 24 h, 37 °C; for EC90: CCUG67180, 24 h; for EC50: CCUG67180; for Selectivity index E. coli (CCUG #67180): SI = ((EC50 MCF-7 + EC50 HepG2)/2)/EC50 bacterial strain
Method: as §1

[5] = test system: E. coli (CCUG #17620/ ATCC #25922); experiment: as above; type: cell-based, Escherichia coli; conditions: for EC50 / EC90: Escherichia coli, ca-MH broth, 24 h, 37 °C; for Selectivity index E. coli (CCUG #17620/ ATCC #25922): SI = ((EC50 MCF-7 + EC50 HepG2)/2)/EC50 bacterial strain
Method: as §1

[6] = test system: P. carotovorum (NBRC/ATCC #3380); experiment: Antibacterial resazurin assay, laboratory strain; conditions: for EC90: read-out: Pcar EC90; for Selectivity index P. carotovorum: mean of MCF-7 and HepG2 EC50 over bacterial EC50, laboratory strain
Trypanosoma cruzi = test system: Trypanosoma cruzi; set-up: method as in earlier work; conditions: PubChem AID 1314398; read-out: effective against Trypanosoma cruzi; cited from earlier work
Plasmodium falciparum = test system: Plasmodium falciparum; set-up: method as in PMID 28674055; conditions: erythrocyte stage; cited from earlier work
[7] = Pseudomonas putida, ATCC100650, 18 h, read-out: Ppu EC50, laboratory strain, 18 h, 37 °C, AlamarBlue
[8] = Pseudomonas putida, ATCC100650, 18 h
[9] = Pectobacterium carotovorum, ATCC3380, 18 h, read-out: Pcar EC50, laboratory strain, 18 h, 37 °C, AlamarBlue
[10] = Pectobacterium carotovorum, ATCC3380, 18 h

N=C(N)NCc1ccc(-c2ccc(-c3ccc(CNC(=N)N)cc3)o2)cc1 [Compound 10, 2,5-Bis(4-guanidinomethylphenyl)furan]
EC50 [1]: > 200 µM
EC90 [1]: > 200 µM
EC50 [2]: > 200 µM
EC90 [2]: > 200 µM
EC50 [3]: > 300 µM
EC90 [3]: > 300 µM
EC50 [4, 7]: 25.6 µM
EC90 [4, 8]: 36.7 µM
Selectivity index P. putida [4]: 3.6
EC90 (E. coli (CCUG #67180)): > 200 µM
EC50 (E. coli (CCUG #67180)): 188 µM
Selectivity index E. coli (CCUG #67180) (E. coli (CCUG #67180)): 0.5
EC50 [5]: 151 µM
EC90 [5]: 179 µM
Selectivity index E. coli (CCUG #17620/ ATCC #25922) [5]: 0.6
EC50 [6, 9]: 43.6 µM
EC90 [6, 10]: 61.2 µM
Selectivity index P. carotovorum [6]: 2.1

N=C(N)Nc1ccc(-c2ccc(C(=O)N3CCc4cc(NC(=N)N)ccc43)o2)c(Cl)c1 [Compound 16, (5-(2-chloro-4-guanidinophenyl)furan-2-yl)(5-guanidinoindolin-1-yl)methanone]
EC50 [1]: 12.9 µM
EC90 [1]: 15.3 µM
Selectivity index K. pneumoniae (CCUG #58547) [1]: 16.2
EC50 [2]: 17.1 µM
EC90 [2]: 22.9 µM
Selectivity index P. aeruginosa (CCUG #17619) [2]: 12.2
EC50 [3]: > 300 µM
EC90 [3]: > 300 µM
EC50 [4, 7]: 94.2 µM
EC90 [4, 8]: 147 µM
Selectivity index P. putida [4]: 2.2
EC90 (E. coli (CCUG #67180)): 27.1 µM
EC50 (E. coli (CCUG #67180)): 23 µM
Selectivity index E. coli (CCUG #67180) (E. coli (CCUG #67180)): 9.1
EC50 [5]: 13.6 µM
EC90 [5]: 19.7 µM
Selectivity index E. coli (CCUG #17620/ ATCC #25922) [5]: 15.4
EC50 [6, 9]: 70.9 µM
EC90 [6, 10]: 80.7 µM
Selectivity index P. carotovorum [6]: 2.9

Cc1cc(NC(=N)N)ccc1-c1ccc(-c2ccc(NC(=N)N)cc2C)o1 [Compound 4, 2,5-Bis(4-guanidino-2-methylphenyl)furan]
EC50 [1]: 17.1 µM
EC90 [1]: 22.4 µM
Selectivity index K. pneumoniae (CCUG #58547) [1]: 4.4
EC50 [2]: 17.9 µM
EC90 [2]: 25.4 µM
Selectivity index P. aeruginosa (CCUG #17619) [2]: 4.2
EC50 [3]: 6.2 µM
EC90 [3]: 8.5 µM
Selectivity index B. subtilis [3]: 12.2
EC50 [4, 7]: ~14.4 µM
EC90 [4, 8]: 59.6 µM
Selectivity index P. putida [4]: 5.2
EC50 ([4]; read-out: Ppu EC50, laboratory strain, 18 h, 37 °C, AlamarBlue): 14.5 µM
EC90 (E. coli (CCUG #67180)): 25.3 µM
EC50 (E. coli (CCUG #67180)): 23.1 µM
Selectivity index E. coli (CCUG #67180) (E. coli (CCUG #67180)): 3.3
EC50 [5]: 11.3 µM
EC90 [5]: 18.3 µM
Selectivity index E. coli (CCUG #17620/ ATCC #25922) [5]: 6.7
EC50 [6, 9]: ~28.5 µM
EC90 [6, 10]: 37.3 µM
Selectivity index P. carotovorum [6]: 2.6
EC50 ([6]; read-out: Pcar EC50, laboratory strain, 18 h, 37 °C, AlamarBlue): 28.6 µM

N=C(N)Nc1ccc(-c2ccc(-c3ccc(NC(=N)N)cc3Cl)o2)c(Cl)c1 [Compound 1, 2,5-Bis(2-chloro-4-guanidinophenyl)furan]
EC50 (Trypanosoma cruzi): 0.29 µM
EC50 [1]: 5.2 µM
EC90 [1]: 8 µM
Selectivity index K. pneumoniae (CCUG #58547) [1]: 7.5
EC50 [2]: 4.8 µM
EC90 [2]: 6.7 µM
Selectivity index P. aeruginosa (CCUG #17619) [2]: 8.1
EC50 [3]: 25.4 µM
EC90 [3]: 136 µM
Selectivity index B. subtilis [3]: 1.5
EC50 [4, 7]: 258 µM
EC90 [4, 8]: 517 µM
Selectivity index P. putida [4]: 0.2
EC50 (Plasmodium falciparum): 0.59 µM
EC90 (E. coli (CCUG #67180)): 3.8 µM
EC50 (E. coli (CCUG #67180)): 3.2 µM
Selectivity index E. coli (CCUG #67180) (E. coli (CCUG #67180)): 12.2
EC50 [5]: 3.9 µM
EC90 [5]: 6.3 µM
Selectivity index E. coli (CCUG #17620/ ATCC #25922) [5]: 9.9
EC50 [6, 9]: 67.1 µM
EC90 [6, 10]: 115 µM
Selectivity index P. carotovorum [6]: 0.6
